US8377974B2 (Millennium Pharmaceuticals, Inc., priority 2004, dated 2013)

target: T1, human plasma protein factor Xa (Homo sapiens, UniProt P00742); assay: Factor Xa IC50 determination: cleavage of paranitroanilide substrate S-2765 in 96-well plates; assay type: biochemical; conditions: fXa 1 nM, S-2765 100 μM, Tris buffered saline pH 7.4, room temperature
T1 construct: measure proteolytic activity of the enzyme (factor Xa); purchased Haematologic Technologies (Essex Junction, Vt.); host or cells: human plasma
T1 sequence (P00742 235-488 limits assumed): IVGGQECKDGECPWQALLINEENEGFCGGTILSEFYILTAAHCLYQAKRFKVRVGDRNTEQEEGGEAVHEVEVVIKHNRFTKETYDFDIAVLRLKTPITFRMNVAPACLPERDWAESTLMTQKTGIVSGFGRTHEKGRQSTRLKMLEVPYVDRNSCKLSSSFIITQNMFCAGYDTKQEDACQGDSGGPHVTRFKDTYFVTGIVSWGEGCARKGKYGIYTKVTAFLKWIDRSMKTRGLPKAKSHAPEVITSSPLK
T1 sequence (P00742 41-179 partner limits assumed): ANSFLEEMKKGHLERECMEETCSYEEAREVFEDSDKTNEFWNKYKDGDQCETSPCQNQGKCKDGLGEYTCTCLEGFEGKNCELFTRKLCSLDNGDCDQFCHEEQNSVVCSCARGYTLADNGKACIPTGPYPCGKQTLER
Summary of the method: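 Human plasma factor Xa (1 nM) preincubated 5 min at room temperature with inhibitor (0.01 nM–10 μM final) in Tris-buffered saline pH 7.4 with 5 mM CaCl2, 0.1% BSA, 5% DMSO. S-2765 at 100 μM final; hydrolysis at 405 nm over 2 min. IC50 from 4-parameter fit of initial velocities.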

SMILES	IC50 [nM]
O=C(NCC1CC(c2cccc(-c3ccncc3)c2)=NO1)c1ccc(Cl)s1 (stereo not shown) [Example 275, 5-Chloro-thiophene-2-carboxylic acid [3-(3-pyridin-4-yl-phenyl)-4,5-dihydro-isoxazol-5-ylmethyl]-amide]	≥ 500
COC(=O)c1ccc(Nc2ccc(C3=NOC(CNC(=O)c4ccc(Cl)s4)C3)cc2)cc1 (stereo not shown) [Example 262, 4-[4-(5-{[(5-Chloro-thiophene-2-carbonyl)-amino]-methyl}-4,5-dihydro-isoxazol-3-yl)-phenylamino]-benzoic acid methyl ester]	≥ 500
CCN1CCC(C2=NOC(CNC(=O)c3ccc(Cl)s3)C2)CC1 (stereo not shown) [Example 169, 5-Chloro-thiophene-2-carboxylic acid [3-(1-ethyl-piperidin-4-yl)-4,5-dihydro-isoxazol-5-ylmethyl]-amide]	≥ 500
C#CCN(C)C(=N)c1ccc(-c2nc(CNC(=O)c3ccc(Cl)s3)cs2)cc1 [Example 357, N-((2-(4-(N-Methyl-N-(prop-2-ynyl)carbamimidoyl)phenyl)thiazol-4-yl)methyl)-5-chlorothiophene-2-carboxamide]	≥ 500
O=C(NCC1CC(c2cccc(-c3cccc(CN4CCCC4)c3)c2)=NO1)c1ccc(Cl)s1 (stereo not shown) [Example 265, 5-Chloro-thiophene-2-carboxylic acid [3-(3′-pyrrolidin-1-ylmethyl-biphenyl-3-yl)-4,5-dihydro-isoxazol-5-ylmethyl]-amide]	≥ 500
O=C(NCC1CC(c2ccc(Nc3ccc(F)cc3)cc2)=NO1)c1ccc(Cl)s1 (stereo not shown) [Example 223, 5-Chloro-thiophene-2-carboxylic acid {3-[4-(4-fluoro-phenylamino)-phenyl]-4,5-dihydro-isoxazol-5-ylmethyl}-amide]	≥ 500
C[C@@H](NC(=O)c1ccc(Cl)s1)c1cc(-c2ccc(C3=NCCN3C)cc2)no1 [Example 50, (R)-5-Chloro-thiophene-2-carboxylic acid (1-{3-[4-(1-methyl-4,5-dihydro-1H-imidazol-2-yl)-phenyl]-isoxazol-5-yl}-ethyl)-amide]	≤ 100
N=C(c1ccccc1)N1CCC(c2cc(CNC(=O)c3ccc(Cl)s3)on2)CC1 [Example 181, 5-Chloro-thiophene-2-carboxylic acid {3-[1-(imino-phenyl-methyl)-piperidin-4-yl]-isoxazol-5-ylmethyl}-amide]	≥ 500
N=C(c1ccc(-c2nc(CNC(=O)c3ccc(Cl)s3)co2)cc1)N1CCCC1 [Example 340, 5-Chloro-N-((2-(4-(imino(pyrrolidin-1-yl)methyl)phenyl)oxazol-4-yl)methyl)thiophene-2-carboxamide]	≤ 100
Cc1ccc(-c2cc(CNC(=O)c3ccc(Cl)s3)on2)cc1 [Example 149, 5-Chloro-thiophene-2-carboxylic acid (3-p-tolyl-isoxazol-5-ylmethyl)-amide]	≥ 500
CN(C)CCN(C)C(=N)c1ccc(C2=NOC(C)(CNC(=O)c3ccc(Cl)s3)C2)cc1 (stereo not shown) [Example 65, 5-Chloro-thiophene-2-carboxylic acid (3-{4-[N-(2-dimethylamino-ethyl)-N-methyl-carbamimidoyl]-phenyl}-5-methyl-4,5-dihydro-isoxazol-5-ylmethyl)-amide]	≤ 100
O=Cc1ccccc1-c1ccc(-c2cc(CNC(=O)c3ccc(Cl)s3)on2)cc1 [Example 208, 5-Chloro-thiophene-2-carboxylic acid [3-(2′-formyl-biphenyl-4-yl)-isoxazol-5-ylmethyl]-amide]	≤ 100
O=C(NCc1cc(-c2ccc(C(N3CCC3)=[N+]3CCC3)cc2)no1)c1ccc(Cl)s1 [Example 27, 5-Chloro-thiophene-2-carboxylic acid {3-[4-(azetidin-1-yl-azetidin-1-ylidene-methyl)-phenyl]-isoxazol-5-ylmethyl}-amide]	≤ 100
CCOc1cc(C(=N)N2CCCCC2)ccc1-c1cc(CNC(=O)c2ccc(Cl)s2)on1 [Example 125, 5-Chloro-thiophene-2-carboxylic acid {3-[2-ethoxy-4-(imino-piperidin-1-yl-methyl)-phenyl]-isoxazol-5-ylmethyl}-amide]	≤ 100

More lines, now with the values ahead:

IC50 [nM]	SMILES
≥ 500	CN(C)CCN(C)C(=N)c1ccc(-c2nc(CNC(=O)c3ccc(Cl)s3)cs2)cc1 [Example 355, N-((2-(4-(N-(2-(Dimethylamino)ethyl)-N-methylcarbamimidoyl)phenyl)thiazol-4-yl)methyl)-5-chlorothiophene-2-carboxamide]
100 to 500	O=C(NCc1cn(-c2ccc(N3CCOCC3)nc2)nn1)c1ccc(Cl)s1 [Example 386, 5-Chloro-N-((1-(6-morpholinopyridin-3-yl)-1H-1,2,3-triazol-4-yl)methyl)thiophene-2-carboxamide]
≥ 500	CN1CCN=C1c1ccc(-c2csc(CNC(=O)c3ccc(Cl)s3)n2)cc1 [Example 361, 5-Chloro-N-((4-(4-(1-methyl-4,5-dihydro-1H-imidazol-2-yl)phenyl)thiazol-2-yl)methyl)thiophene-2-carboxamide]
≥ 500	CN(Cc1cc(-c2ccc(C(=N)N3CCCC3)cc2)no1)C(=O)c1ccc(Cl)s1 [Example 37, 5-Chloro-thiophene-2-carboxylic acid {3-[4-(imino-pyrrolidin-1-yl-methyl)-phenyl]-isoxazol-5-ylmethyl}-methyl-amide]
100 to 500	COCc1ccccc1-c1ccc(-c2cc(CNC(=O)c3ccc(Cl)s3)on2)cc1 [Example 189, 5-Chloro-thiophene-2-carboxylic acid [3-(2′-methoxymethyl-biphenyl-4-yl)-isoxazol-5-ylmethyl]-amide]
≤ 100	C[C@@H](NC(=O)c1ccc(Cl)s1)c1cc(-c2ccc(C(=N)N(C)C)cc2)no1 [Example 49, (R)-5-Chloro-thiophene-2-carboxylic acid (1-{3-[4-(N,N-dimethyl-carbamimidoyl)-phenyl]-isoxazol-5-yl}-ethyl)-amide]
≥ 500	C[C@H](NC(=O)c1ccc(Cl)s1)c1cc(-c2ccc(C(=N)N3CCCC3)cc2)no1 [Example 55, (S)-5-Chloro-thiophene-2-carboxylic acid (1-{3-[4-(imino-pyrrolidin-1-yl-methyl)-phenyl]-isoxazol-5-yl}-ethyl)-amide]
≤ 100	O=C(NCc1cc(-c2cccc(-c3ccccc3CN3CCCC3)c2)no1)c1ccc(Cl)s1 [Example 269, 5-Chloro-thiophene-2-carboxylic acid [3-(2′-pyrrolidin-1-ylmethyl-biphenyl-3-yl)-isoxazol-5-ylmethyl]-amide]
≤ 100	N=C(c1ccc(-n2cnc(CNC(=O)c3ccc(Cl)s3)c2)cc1)N1CCC1 [Example 366, N-((1-(4-(Azetidin-1-yl(imino)methyl)phenyl)-1H-imidazol-4-yl)methyl)-5-chlorothiophene-2-carboxamide]
≤ 100	CCN(C)C(=N)c1ccc(-c2cc(CNC(=O)c3ccc(Cl)s3)on2)cc1 [Example 28, 5-Chloro-thiophene-2-carboxylic acid {3-[4-(N-ethyl-N-methyl-carbamimidoyl)-phenyl]-isoxazol-5-ylmethyl}-amide]
≤ 100	CN1CCCN(c2ccc(-n3cc(CNC(=O)c4ccc(Cl)s4)nn3)cn2)CC1 [Example 383, 5-Chloro-N-((1-(6-(4-methyl-1,4-diazepan-1-yl)pyridin-3-yl)-1H-1,2,3-triazol-4-yl)methyl)thiophene-2-carboxamide]
≥ 500	O=C(NCC1CC(c2ccc(N3CCOCCC3=O)cc2F)=NO1)c1ccc(Cl)s1 (stereo not shown) [Example 249, 5-Chloro-thiophene-2-carboxylic acid {3-[2-fluoro-4-(5-oxo-[1,4]oxazepan-4-yl)-phenyl]-4,5-dihydro-isoxazol-5-ylmethyl}-amide]
≤ 100	Cc1cccn(-c2ccc(C3=NOC(CNC(=O)c4ccc(Cl)s4)C3)cc2)c1=O (stereo not shown) [Example 281, 5-Chloro-N-((3-(4-(3-methyl-2-oxopyridin-1(2H)-yl)phenyl)-4,5-dihydroisoxazol-5-yl)methyl)thiophene-2-carboxamide]
≥ 500	CCn1nccc1Nc1ccc(C2=NOC(CNC(=O)c3ccc(Cl)s3)C2)cc1 (stereo not shown) [Example 232, 5-Chloro-thiophene-2-carboxylic acid {3-[4-(2-ethyl-2H-pyrazol-3-ylamino)-phenyl]-4,5-dihydro-isoxazol-5-ylmethyl}-amide]
≥ 500	Cc1cc(Nc2ccc(C3=NOC(CNC(=O)c4ccc(Cl)s4)C3)cc2)ccn1 (stereo not shown) [Example 228, 5-Chloro-thiophene-2-carboxylic acid {3-[4-(2-methyl-pyridin-4-ylamino)-phenyl]-4,5-dihydro-isoxazol-5-ylmethyl}-amide]
≤ 100	O=C(NCc1cn(-c2ccc(-n3cc(Cl)ccc3=O)cc2)nn1)c1ccc(Cl)s1 [Example 299, 5-Chloro-N-((1-(4-(5-chloro-2-oxopyridin-1(2H)-yl)phenyl)-1H-1,2,3-triazol-4-yl)methyl)thiophene-2-carboxamide]
≥ 500	O=C(NCc1cc(-c2ccc(-c3ccccn3)cc2)no1)c1ccc(Cl)s1 [Example 220, 5-Chloro-thiophene-2-carboxylic acid [3-(4-pyridin-2-yl-phenyl)-isoxazol-5-ylmethyl]-amide]
≤ 100	O=C(NCc1cc(-c2ccc(-n3ccccc3=O)nc2)no1)c1ccc(Cl)s1 [Example 310, 5-Chloro-N-((3-(6-(2-oxopyridin-1(2H)-yl)pyridin-3-yl)isoxazol-5-yl)methyl)thiophene-2-carboxamide]
≤ 100	COc1cc(C(=N)N2CCCC2)ccc1-c1cc(CNC(=O)c2ccc(Cl)s2)on1 [Example 120, 5-Chloro-thiophene-2-carboxylic acid {3-[4-(imino-pyrrolidin-1-yl-methyl)-2-methoxy-phenyl]-isoxazol-5-ylmethyl}-amide]
≤ 100	Nc1ccc(-c2cc(CNC(=O)c3ccc(Cl)s3)on2)cc1 [Example 161, 5-Chloro-thiophene-2-carboxylic acid [3-(4-amino-phenyl)-isoxazol-5-ylmethyl]-amide]
